Tests used:
patients with LGS or DS = test: Phase 3 randomized controlled trials of CBD versus placebo, adverse reactions in DS and LGS patients; assay type: in vivo, human; details: for Subjects with pneumonia, %: LGS and DS; for Pneumonia incidence: controlled trials
Excerpt: (§1) Randomized, double-blind, parallel-group, trials of CBD versus placebo were undertaken and the adverse event experienced by the patients were collated and investigated.
(§2) In summary patients completed a 1-week screening period and a 4-week baseline period before they were randomized to receive CBD or equivalent volumes of placebo. Randomization was stratified by age.
(§3) Patients began a 4-week dose escalation period, titrating up to their assigned dose, before continuing on a stable dose of blinded investigational medicinal product (IMP) for 12 or 14 weeks.
(§4) Dose escalation for each patient was subject to the investigator's assessment of safety and tolerability. If a dose became poorly tolerated, the investigator may consider temporarily or permanently reducing the dose for the remainder of the study.
(§5) Clinic visits occurred for screening (Day-35), baseline (Day-28), randomization (Day 1) and, on Days 15 and 29 during titration and on Days 43, 57, 71 (telephone) and 85 until the end of treatment (Day 113). Safety telephone calls were completed every two days during titration, one week after the end of titration and, for patients not entering the open label extension (OLE), weekly from Visit 10 to Visit 12.
(§6) Safety and tolerability measures that were recorded included: adverse events; clinical laboratory parameters; 12-lead electrocardiogram (ECG); physical examination parameters (including height and weight); vital signs; Columbia-Suicide Severity Rating Scale (C-SSRS; 19+ years) or C-SSRS Children's (6-18 years) score, where applicable; number of inpatient hospitalizations due to epilepsy; abuse liability and effects on menstruation cycles (in females).
Table 1.1 below lists the adverse reactions that were reported in DS and LGS patients treated with CBD during the 14-week treatment period in the Phase 3 controlled trials.

[1] = test system: patients with LGS, DS, or TSC; test: Double-blind placebo-controlled trials across LGS, DS and TSC, overall statements; assay type: in vivo, human
Excerpt: as §1, §2, §3, §6

mice = details: after administration of pro-convulsant drugs or an electric current; cited from earlier work
adult patients = details: 200 mg/day of pure CBD; four adult patients; cited from earlier work
[2] = test system: adult patients with generalized epilepsy; details: eight adult patients with generalized epilepsy; cited from earlier work
[3] = test system: healthy adults and patients with LGS, DS, and TSC; test: Controlled studies, serum creatinine; assay type: in vivo, human
Excerpt: CBD can cause elevations in serum creatinine. The mechanism has not yet been determined. In controlled studies in healthy adults and in patients with LGS, DS, and TSC, an increase in serum creatinine of approximately 10% was observed within 2 weeks of starting CBD-OS. The increase was reversible in healthy adults. Reversibility was not assessed in studies in LGS, DS, or TSC.

patients with TSC = test: Phase 3 randomized controlled trial of CBD versus placebo, adverse reactions in TSC patients; assay type: in vivo, human; details: for Alanine aminotransferase increased, adverse reaction incidence / Anaemia, adverse reaction incidence / Aspartate aminotransferase increased, adverse reaction incidence / Decreased appetite, adverse reaction incidence / Diarrhoea, adverse reaction incidence / Eosinophil count increased, adverse reaction incidence / Fatigue, adverse reaction incidence / Gamma glutamyl transferase increased, adverse reaction incidence / Nausea, adverse reaction incidence / Pneumonia (grouped terms), adverse reaction incidence / Pyrexia, adverse reaction incidence / Rash, adverse reaction incidence / Somnolence, adverse reaction incidence / Urinary tract infection, adverse reaction incidence / Vomiting, adverse reaction incidence / Weight decreased, adverse reaction incidence / Subjects with pneumonia, %: TSC; for Alanine aminotransferase increased, adverse reaction incidence / Anaemia, adverse reaction incidence / Aspartate aminotransferase increased, adverse reaction incidence / Decreased appetite, adverse reaction incidence / Diarrhoea, adverse reaction incidence / Eosinophil count increased, adverse reaction incidence / Fatigue, adverse reaction incidence / Gamma glutamyl transferase increased, adverse reaction incidence / Nausea, adverse reaction incidence / Pneumonia (grouped terms), adverse reaction incidence / Pyrexia, adverse reaction incidence / Rash, adverse reaction incidence / Somnolence, adverse reaction incidence / Urinary tract infection, adverse reaction incidence / Vomiting, adverse reaction incidence / Weight decreased, adverse reaction incidence: 12-week treatment
Excerpt: as §1, §2, §3, §4, §5, §6
Table 1.12 below lists the adverse reactions that were reported in TSC patients treated with CBD during the 12-week treatment period in the Phase 3 controlled trial.

[4] = test system: institutionalized adult patients; details: 200 mg/day of pure CBD; twelve institutionalized adult patients; open label; cited from earlier work
[5] = 50 mg/kg/day group (N = 73; one-third did not reach 50 mg/kg/day)

C=C(C)[C@@H]1CCC(C)=C[C@H]1c1c(O)cc(CCCCC)cc1O [CBD, cannabidiol]
Subjects with pneumonia, % (patients with LGS or DS; With CLB, 10 mg/kg/day, N1 = 85): 14.1% | Subjects with pneumonia, % (patients with LGS or DS; With CLB, 20 mg/kg/day, N1 = 167): 7.2% | Subjects with pneumonia, % (patients with LGS or DS; Without CLB, 20 mg/kg/day, N2 = 140): 2.9% | Patients who developed a new laboratory-defined anaemia during the study (patients with LGS or DS; patients with LGS and DS, normal haemoglobin at baseline, later below lower limit of normal): 27% | Discontinuation incidence for transaminase elevation (patients with LGS or DS; patients with LGS or DS): dose responsive | Pneumonia incidence (patients with LGS or DS; with clobazam, 10 mg/kg/day CBD): 14% | Pneumonia incidence (patients with LGS or DS; with clobazam, 20 mg/kg/day CBD): 7% | Pneumonia incidence (patients with LGS or DS; without concomitant clobazam, 10 mg/kg/day CBD): 0% | Pneumonia incidence (patients with LGS or DS; without concomitant clobazam, 20 mg/kg/day CBD): 3% | Seizure frequency versus placebo ([1]; CBD alone or in combination with clobazam, across all treatment groups): significant reduction | Decrease in weight ([1]; patients with LGS, DS, or TSC): dose related | Incidence of pneumonia in patients concurrently taking clobazam in addition to CBD ([1]; versus patients not taking clobazam, LGS, DS and TSC): significantly higher | Prevention of seizures (mice): able to prevent seizures | Patients who became seizure free (adult patients): two of the four | Number of patients with a marked reduction of seizures [2]: 4 | Reversibility of the serum creatinine increase ([3]; healthy adults): reversible | Increase in serum creatinine ([3]; within 2 weeks of starting CBD-OS, healthy adults and patients with LGS, DS, and TSC): approximately 10% | Alanine aminotransferase increased, adverse reaction incidence (patients with TSC; 25 mg/kg/day (N = 75)): 12% | Anaemia, adverse reaction incidence (patients with TSC; 25 mg/kg/day (N = 75)): 7% | Aspartate aminotransferase increased, adverse reaction incidence (patients with TSC; 25 mg/kg/day (N = 75)): 11% | Decreased appetite, adverse reaction incidence (patients with TSC; 25 mg/kg/day (N = 75)): 20% | Diarrhoea, adverse reaction incidence (patients with TSC; 25 mg/kg/day (N = 75)): 31% | Eosinophil count increased, adverse reaction incidence (patients with TSC; 25 mg/kg/day (N = 75)): 5% | Fatigue, adverse reaction incidence (patients with TSC; 25 mg/kg/day (N = 75)): 5% | Gamma glutamyl transferase increased, adverse reaction incidence (patients with TSC; 25 mg/kg/day (N = 75)): 16% | Nausea, adverse reaction incidence (patients with TSC; 25 mg/kg/day (N = 75)): 9% | Pneumonia (grouped terms), adverse reaction incidence (patients with TSC; 25 mg/kg/day (N = 75)): 4% | Pyrexia, adverse reaction incidence (patients with TSC; 25 mg/kg/day (N = 75)): 19% | Rash, adverse reaction incidence (patients with TSC; 25 mg/kg/day (N = 75)): 7% | Somnolence, adverse reaction incidence (patients with TSC; 25 mg/kg/day (N = 75)): 13% | Urinary tract infection, adverse reaction incidence (patients with TSC; 25 mg/kg/day (N = 75)): 5% | Vomiting, adverse reaction incidence (patients with TSC; 25 mg/kg/day (N = 75)): 17% | Weight decreased, adverse reaction incidence (patients with TSC; 25 mg/kg/day (N = 75)): 7% | Patients who developed a new laboratory-defined anaemia during the study (patients with TSC; 25 mg/kg/day, patients with TSC, normal haemoglobin at baseline, later below lower limit of normal): 38% | Alanine aminotransferase increased, adverse reaction incidence (patients with TSC; [5]): 22% | Anaemia, adverse reaction incidence (patients with TSC; [5]): 4% | Aspartate aminotransferase increased, adverse reaction incidence (patients with TSC; [5]): 19% | Decreased appetite, adverse reaction incidence (patients with TSC; [5]): 23% | Diarrhoea, adverse reaction incidence (patients with TSC; [5]): 56% | Eosinophil count increased, adverse reaction incidence (patients with TSC; [5]): 1% | Fatigue, adverse reaction incidence (patients with TSC; [5]): 6% | Gamma glutamyl transferase increased, adverse reaction incidence (patients with TSC; [5]): 14% | Nausea, adverse reaction incidence (patients with TSC; [5]): 3% | Pneumonia (grouped terms), adverse reaction incidence (patients with TSC; [5]): 3% | Pyrexia, adverse reaction incidence (patients with TSC; [5]): 16% | Rash, adverse reaction incidence (patients with TSC; [5]): 12% | Somnolence, adverse reaction incidence (patients with TSC; [5]): 26% | Urinary tract infection, adverse reaction incidence (patients with TSC; [5]): 1% | Vomiting, adverse reaction incidence (patients with TSC; [5]): 18% | Weight decreased, adverse reaction incidence (patients with TSC; [5]): 8% | Subjects with pneumonia, % (patients with TSC; With CLB, 25 mg/kg/day, N1 = 18): 16.7% | Subjects with pneumonia, % (patients with TSC; With CLB, 50 mg/kg/day, N1 = 20): 5.0% | Subjects with pneumonia, % (patients with TSC; Without CLB, 50 mg/kg/day, N2 = 53): 1.9% | Discontinuation for transaminase elevation (patients with TSC; controlled trial in TSC): dose responsive | Pneumonia incidence (patients with TSC; with concomitant clobazam, 25 mg/kg/day, patients with TSC): 17% | Pneumonia incidence (patients with TSC; without clobazam, 25 mg/kg/day, patients with TSC): 0% | Control of seizures [4]: ineffective

Reference: patent US20250319107A1, “USE OF CANNABIDIOL AND CLOBAZAM IN THE TREATMENT OF CHILDHOOD-ONSET EPILEPSY SYNDROMES” (GW Research Limited, priority 2021, published 2025)
